# Assay results as given in ChEMBL document CHEMBL1201862, “PubChem BioAssay data set” (2004).
#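 How tested: cells in 96-well plates exposed to compound for 48 hours at five concentrations. The concentration for 50% growth inhibition is given as GI50.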 Active and inactive are the calls of the source. Cut-off read from the data, not from the text of the source: active = GI50 up to about 1.1 µM and inactive = higher.
# How the values were obtained:
# Test in all cases: NCI tumour cell line growth inhibition, 48 h
# NCI-H460 = system: NCI-H460
# SF-295 = system: SF-295
# DLD-1 = system: DLD-1
# Hs-578T = system: Hs-578T
# TK-10 = system: TK-10
# UACC-62 = system: UACC-62
# CCRF-CEM = system: CCRF-CEM
# SW-620 = system: SW-620
# SNB-75 = system: SNB-75
# SNB-78 = system: SNB-78
# RPMI-8226 = system: RPMI-8226
# SK-OV-3 = system: SK-OV-3
# IGROV-1 = system: IGROV-1
# HOP-92 = system: HOP-92
# CAKI-1 = system: CAKI-1
# OVCAR-3 = system: OVCAR-3
# EKVX = system: EKVX
# XF498 = system: XF498
# MDA-MB-231 = system: MDA-MB-231
# HCT-116 = system: HCT-116
Structure (SMILES),GI50 (NCI-H460),GI50 (SF-295),GI50 (DLD-1),GI50 (Hs-578T),GI50 (TK-10),GI50 (UACC-62),GI50 (CCRF-CEM),GI50 (SW-620),GI50 (SNB-75),GI50 (SNB-78),GI50 (RPMI-8226),GI50 (SK-OV-3),GI50 (IGROV-1),GI50 (HOP-92),GI50 (CAKI-1),GI50 (OVCAR-3),GI50 (EKVX),GI50 (XF498),GI50 (MDA-MB-231),GI50 (HCT-116)
CCCCCCCC(=O)O[C@H]1[C@H]2[C@@H](CC1(C)C)C(=O)[C@]13O[C@H]1C(=O)[C@]1(CO1)[C@]23C,5.71 µM (inactive),15.8 µM (inactive),1.89 µM (inactive),46 µM (inactive),2.75 µM (inactive),3.55 µM (inactive),0.0615 µM (active),0.706 µM (active),23.4 µM (inactive),4.94 µM (inactive),0.556 µM (active),34.3 µM (inactive),4.4 µM (inactive),1.97 µM (inactive),2.62 µM (inactive),2.91 µM (inactive),3.66 µM (inactive),3.26 µM (inactive),25.5 µM (inactive),
Cc1nc2c(C)c3c([nH]c4ccc(Cl)cc43)c(C)c2c(O)c1C,2.07 µM (inactive),5.89 µM (inactive),14.2 µM (inactive),15.9 µM (inactive),7.33 µM (inactive),6.44 µM (inactive),2.91 µM (inactive),7.52 µM (inactive),16.8 µM (inactive),> 100 µM (inactive),3.3 µM (inactive),16.5 µM (inactive),5.27 µM (inactive),9.53 µM (inactive),5.71 µM (inactive),7.94 µM (inactive),22 µM (inactive),43.2 µM (inactive),2.44 µM (inactive),4.29 µM (inactive)
NNC(=O)/C(=C/c1cccc([N+](=O)[O-])c1)NC(=O)c1ccccc1,> 100 µM (inactive),> 100 µM (inactive),> 100 µM (inactive),,> 100 µM (inactive),,> 100 µM (inactive),> 100 µM (inactive),> 100 µM (inactive),> 100 µM (inactive),> 100 µM (inactive),> 100 µM (inactive),> 100 µM (inactive),> 100 µM (inactive),> 100 µM (inactive),> 100 µM (inactive),< 0.01 µM (active),> 100 µM (inactive),,> 100 µM (inactive)
NNC(=S)N/N=C/C(Cl)=C(\Cl)C(=O)O,> 100 µM (inactive),> 100 µM (inactive),> 100 µM (inactive),,> 100 µM (inactive),> 100 µM (inactive),> 100 µM (inactive),> 100 µM (inactive),> 100 µM (inactive),> 100 µM (inactive),> 100 µM (inactive),,> 100 µM (inactive),> 100 µM (inactive),> 100 µM (inactive),> 100 µM (inactive),> 100 µM (inactive),> 100 µM (inactive),,> 100 µM (inactive)
Cc1cc(Br)ccc1/N=N/c1c(C)nn(-c2ccccc2)c1-c1ccccc1,45.8 µM (inactive),75.2 µM (inactive),30.9 µM (inactive),,> 100 µM (inactive),27 µM (inactive),21.2 µM (inactive),81.5 µM (inactive),> 100 µM (inactive),> 100 µM (inactive),> 100 µM (inactive),> 100 µM (inactive),93.5 µM (inactive),98.6 µM (inactive),71.3 µM (inactive),99.5 µM (inactive),> 100 µM (inactive),> 100 µM (inactive),,9.08 µM (inactive)
C/C(CC(=O)Nc1ccc(C)cc1)=N\NC(N)=S,> 100 µM (inactive),> 100 µM (inactive),97.7 µM (inactive),,> 100 µM (inactive),> 100 µM (inactive),> 100 µM (inactive),> 100 µM (inactive),> 100 µM (inactive),> 100 µM (inactive),> 100 µM (inactive),> 100 µM (inactive),> 100 µM (inactive),> 100 µM (inactive),,> 100 µM (inactive),> 100 µM (inactive),> 100 µM (inactive),,> 100 µM (inactive)
N/C(=N\O)N/N=C/c1cccc(F)c1,26.4 µM (inactive),37.8 µM (inactive),64 µM (inactive),,66.5 µM (inactive),16.8 µM (inactive),23.8 µM (inactive),75.2 µM (inactive),52.6 µM (inactive),> 100 µM (inactive),39 µM (inactive),55.7 µM (inactive),47.9 µM (inactive),42.9 µM (inactive),27.7 µM (inactive),75.2 µM (inactive),37.1 µM (inactive),43.7 µM (inactive),,41.6 µM (inactive)
c1ccc(SCCP(CCP(c2ccccc2)c2ccccc2)c2ccccc2)cc1 (configuration not stated),2.84 µM (inactive),5.46 µM (inactive),22 µM (inactive),4.61 µM (inactive),12.1 µM (inactive),,8.3 µM (inactive),13.3 µM (inactive),0.948 µM (active),2.22 µM (inactive),3.14 µM (inactive),6.61 µM (inactive),6.34 µM (inactive),2.29 µM (inactive),7.26 µM (inactive),3.88 µM (inactive),9.02 µM (inactive),2.47 µM (inactive),6.34 µM (inactive),1.89 µM (inactive)
CCN1C(=O)N(C)C(O)c2c1nc1ccccn1c2=O (configuration not stated),20.6 µM (inactive),28 µM (inactive),31.4 µM (inactive),,22.1 µM (inactive),0.103 µM (active),27.8 µM (inactive),35.9 µM (inactive),20.6 µM (inactive),28.1 µM (inactive),27 µM (inactive),26.1 µM (inactive),32.7 µM (inactive),25.6 µM (inactive),,26.1 µM (inactive),21.2 µM (inactive),26.2 µM (inactive),,28.6 µM (inactive)
COC1(OC)CC2OC1C1N=NN(C(=O)OC(C)(C)C)C21 (configuration not stated),> 100 µM (inactive),> 100 µM (inactive),34.8 µM (inactive),,,> 100 µM (inactive),21.1 µM (inactive),57.5 µM (inactive),> 100 µM (inactive),> 100 µM (inactive),52.7 µM (inactive),> 100 µM (inactive),> 100 µM (inactive),> 100 µM (inactive),> 100 µM (inactive),49.3 µM (inactive),,> 100 µM (inactive),,
O=C1C2C3C=C4c5ccccc5N(c5ccccc5)C4(C2C(=O)N1c1ccccc1)C1C(=O)N(c2ccccc2)C(=O)C31 (configuration not stated),4.05 µM (inactive),> 100 µM (inactive),> 100 µM (inactive),,> 100 µM (inactive),3.61 µM (inactive),8.81 µM (inactive),> 100 µM (inactive),65.8 µM (inactive),> 100 µM (inactive),,> 10 µM (inactive),> 10 µM (inactive),2.4 µM (inactive),> 100 µM (inactive),,,37 µM (inactive),,> 100 µM (inactive)
CCOC(=O)C1=C(C)N(NC(=O)Nc2ccccc2)C2(N)N(NC(=O)Nc3ccccc3)C(C)=C(C(=O)OCC)C12C(=O)OCC (configuration not stated),37.9 µM (inactive),47.8 µM (inactive),53.8 µM (inactive),,80.4 µM (inactive),49.3 µM (inactive),,69.7 µM (inactive),25.9 µM (inactive),42.4 µM (inactive),> 100 µM (inactive),29.9 µM (inactive),> 100 µM (inactive),18.8 µM (inactive),,49.2 µM (inactive),> 100 µM (inactive),12 µM (inactive),,29.9 µM (inactive)
CCCCCCCCCCCCCCCCc1c(O)nc(NN)nc1C(=O)OC,> 50 µM (inactive),> 50 µM (inactive),> 50 µM (inactive),,> 50 µM (inactive),> 50 µM (inactive),> 50 µM (inactive),> 50 µM (inactive),> 50 µM (inactive),> 50 µM (inactive),> 50 µM (inactive),> 50 µM (inactive),> 50 µM (inactive),22.4 µM (inactive),> 50 µM (inactive),> 50 µM (inactive),> 50 µM (inactive),> 50 µM (inactive),,> 50 µM (inactive)
Cc1[nH]c2ccccc2c1C1Cc2ccccc2N1C(=O)/C=C\C(=O)O (configuration not stated),> 100 µM (inactive),45.6 µM (inactive),64.9 µM (inactive),,45.8 µM (inactive),26.2 µM (inactive),31 µM (inactive),32.4 µM (inactive),24.3 µM (inactive),61.8 µM (inactive),,> 100 µM (inactive),58.1 µM (inactive),38.2 µM (inactive),24.8 µM (inactive),55.2 µM (inactive),44.8 µM (inactive),22.4 µM (inactive),,47.1 µM (inactive)
CN(C)CCC(=O)c1ccccc1,> 58.5 µM (inactive),> 100 µM (inactive),19.8 µM (inactive),,> 56.5 µM (inactive),> 56.2 µM (inactive),23.4 µM (inactive),16.8 µM (inactive),> 59.4 µM (inactive),38.2 µM (inactive),9.04 µM (inactive),> 57.1 µM (inactive),> 58.5 µM (inactive),24.5 µM (inactive),18.9 µM (inactive),42.7 µM (inactive),> 55.6 µM (inactive),19.4 µM (inactive),,28.4 µM (inactive)
CC(=O)OCC(=O)[C@@]12OC(C)(C)O[C@@H]1C[C@H]1[C@@H]3CC(C=O)=C4C=C(OCCCl)CC[C@]4(C)[C@@]3(F)[C@@H](O)C[C@@]12C [FORMOCORTAL],14.1 µM (inactive),5.42 µM (inactive),23 µM (inactive),,33.9 µM (inactive),> 100 µM (inactive),0.486 µM (active),39 µM (inactive),,15 µM (inactive),2.58 µM (inactive),1.39 µM (inactive),32.7 µM (inactive),20.9 µM (inactive),,25.9 µM (inactive),10.3 µM (inactive),15.1 µM (inactive),,10.4 µM (inactive)
